Experiments:
[1] = COPD Assessment Test and rescue medication use; type: in vivo, human
Experimental: (§1) All assessment timings were based on the morning dose. Pre-dose on Days 1 and 28 of each treatment period, blood samples were taken for pharmacokinetic analyses, followed by forced oscillation (including slow vital capacity manoeuvres for inspiratory capacity [IC] and vital capacity [VC]), spirometry (forced expiratory volume in 1 s [FEV1] and forced vital capacity [FVC]), and the COPD Assessment Test (CAT). Blood samples were also taken up to 12 h post-dose on Days 1 and 28 for pharmacokinetic analyses, with blood samples for biomarker assessment pre-dose on Day 1 and 2 h post-dose on Day 28, and spirometry pre-dose on Days 20 and 24. Sputum was induced prior to each treatment period for baseline determination of biomarkers, and post-dose on Day 20 for collection of phosphatidylinositol (3,4,5)-trisphosphate (PIP3), and on Days 24 and 28 for collection of biomarkers.
(§2) Fold-change from baseline in cell counts, target biomarkers in sputum and blood, and PIP3 were log-transformed and analysed using an analysis of covariance (ANCOVA) model, with treatment, patient, and period as fixed effects, and baseline value as covariate. Changes from baseline in spirometry, forced oscillation and CAT endpoints were analysed using a similar ANCOVA model, but without log transformation. Rescue medication data were analysed using an analysis of variance model, including treatment, period and patient as fixed effects. Other data, including the proportion of days on which patients coughed and the cough VAS results, are presented descriptively only. Further details, including the transcriptomics, mass-spectrometry and Olink proteomics, bioinformatics and multi-omic data integration are in the supplement.

proteins in sputum = test: Olink proteomics in sputum (Target 96 Inflammation and Target 48 Cytokine panels); type: in vivo, human
Experimental: For the proteomics evaluation, sputum samples were run on the Target 48 Cytokine panel, and the Target 96 Inflammation panel (Olink Protemics, Uppsala, Sweden). In the Target 48 Cytokine panel, 45 cytokines were quantified in terms of their absolute concentration. For the Target 96 Inflammation panel, 92 proteins involved in inflammation processes were evaluated, with the results expressed as Normalized Protein eXpression (NPX; the manufacturer’s arbitrary unit, in Log2 scale). […] In the statistical model, using sputum Target 96 and 48 data, change from pre-dose to post-dose expression were used as dependent variable, and patient, period, treatment and pre-dose expression as independent variable.

[2] = tested on: genes in blood and sputum; test: Transcriptomics (RNA-seq) in blood and sputum; type: in vivo, human
Experimental: PAXgene RNA blood samples and induced sputum samples collected in Trizol were analysed at Almac Diagnostic Services (Craigavon, Northern Ireland, UK). RNA extraction and quality assessment of the PAXGene blood and sputum samples were performed, prior to downstream next generation sequencing (NGS). To minimise any technical variability, samples were randomised into processing batches for RNA extraction and NGS library preparation.
After extraction, all RNA underwent quality assessment. PAXGene RNA samples were assessed using a combination of Nanodrop (quantity) and the Agilent Tapestation (integrity), and Sputum RNA samples were assessed using the Qubit RNA assay (quantity) and Agilent Tapestation (integrity). Nanodrop was used for quantity assessment of RNA extracted from sputum in order to preserve a sample for downstream library preparation input.
Upon successful completion of the quality assessment, samples underwent library preparation using Kapa RNA Hyperprep with Riboerase kit. PAXGene Blood RNA samples were also treated with globin depletion oligos. Following library preparation, all generated libraries underwent quality assessment (quantification via Quant-iT dsDNA high-sensitivity assay, and fragment size assessment via the Agilent Tapestation) before being loaded on to a NovaSeq 6000 and sequenced with a total read length of 2x76bp, to a read budget of 50 million paired end reads (total 100 million reads) per sample. Processing control samples were included in the processing batch. Upon completion of sequencing, the quality of sequencing was assessed for the following parameters: clusters passing filter, Q30 scores, error rate, cluster density and read distribution.
Raw sequence data in FASTQ format were subject to a number of quality control assessment steps hosted on the DNAnexus cloud platform. Basic sequencing metrics such as GC content were calculated from unaligned reads using FastQC. Potential ribosomal RNA (rRNA) contamination was assessed using the Burrows-Wheeler Aligner (BWA) and samtools flagstat to determine the number of reads aligning to a ribosomal RNA (rRNA) sequence database. Read alignment to the human reference genome GRCh38 was then performed using StarAlign, with outputs used to calculate post-alignment quality control (QC) metrics such as duplication rate, calculated using Picard MarkDuplicates and a housekeeping coverage metric using a custom script. […] Both pre- and post alignment QC metrics were then reviewed to check for potential problems originating from the sequencing run or starting library material.
The aim was to identify genes that were differentially expressed in response to treatment with CHF6523 from blood and sputum samples.
The ANCOVA model was specified as change from pre-dose to post-dose expression as dependent variable. The independent variables were treatment (reference: placebo), patient, period, and pre-dose expression.
Functional enrichment was performed on those differentially expressed gene lists that had at least 20 genes with FDR<0.05 using ToppFun enrichment on the ToppGene website (https://toppgene.cchmc.org/enrichment.jsp, accessed 05 May 2023 [4]). The background of the enrichment used were those genes that were available in the original datamatrix.

[3] = Cough episodes: daily diary and visual analogue scale; type: in vivo, human; conditions: for Mean cough VAS score (95% CI): VAS 100 mm, 0 no cough, 100 worst cough ever
Experimental: as §2

[4] = tested on: ion channels implicated in the cough reflex; test: Electrophysiology in-vitro examination; type: biochemical
in-vivo guinea pig model = test: In-vivo guinea pig cough model
PI3Kδ = PI3Kδ (Homo sapiens, UniProt O00329); test: Target engagement: PIP3 in induced sputum; type: in vivo; parameters: from tissue; host or cells: induced sputum of COPD patients (in vivo dosing by inhalation)
Experimental: as §1, §2

Sequence of PI3Kδ (O00329 whole entry): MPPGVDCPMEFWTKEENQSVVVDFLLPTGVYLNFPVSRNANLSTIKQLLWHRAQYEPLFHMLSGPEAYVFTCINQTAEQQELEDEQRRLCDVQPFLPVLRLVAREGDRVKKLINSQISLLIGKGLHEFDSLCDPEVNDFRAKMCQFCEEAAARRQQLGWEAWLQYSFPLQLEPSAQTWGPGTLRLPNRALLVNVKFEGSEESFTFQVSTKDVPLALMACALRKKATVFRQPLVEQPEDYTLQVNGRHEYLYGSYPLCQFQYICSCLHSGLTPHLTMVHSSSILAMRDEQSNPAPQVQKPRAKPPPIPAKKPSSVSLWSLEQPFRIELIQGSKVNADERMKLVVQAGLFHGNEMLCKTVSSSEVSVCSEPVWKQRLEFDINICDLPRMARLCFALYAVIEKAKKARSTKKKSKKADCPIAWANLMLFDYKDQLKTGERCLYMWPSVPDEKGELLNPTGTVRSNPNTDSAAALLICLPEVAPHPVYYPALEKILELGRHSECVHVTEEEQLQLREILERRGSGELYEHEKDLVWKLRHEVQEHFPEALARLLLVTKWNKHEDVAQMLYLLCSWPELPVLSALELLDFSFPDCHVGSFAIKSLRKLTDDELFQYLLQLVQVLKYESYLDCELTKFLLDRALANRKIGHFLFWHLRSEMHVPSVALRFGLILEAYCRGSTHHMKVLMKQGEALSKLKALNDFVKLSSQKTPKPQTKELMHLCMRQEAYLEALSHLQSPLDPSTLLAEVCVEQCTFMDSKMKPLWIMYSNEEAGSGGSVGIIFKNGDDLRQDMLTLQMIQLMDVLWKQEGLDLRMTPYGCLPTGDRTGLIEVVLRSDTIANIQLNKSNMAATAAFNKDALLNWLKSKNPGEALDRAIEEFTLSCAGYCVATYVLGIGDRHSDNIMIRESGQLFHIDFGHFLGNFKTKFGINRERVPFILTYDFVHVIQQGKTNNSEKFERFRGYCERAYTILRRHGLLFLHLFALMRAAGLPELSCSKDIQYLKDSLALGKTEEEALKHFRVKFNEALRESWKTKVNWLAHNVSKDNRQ
Sequence of PI3Kδ (P27986 whole entry partner): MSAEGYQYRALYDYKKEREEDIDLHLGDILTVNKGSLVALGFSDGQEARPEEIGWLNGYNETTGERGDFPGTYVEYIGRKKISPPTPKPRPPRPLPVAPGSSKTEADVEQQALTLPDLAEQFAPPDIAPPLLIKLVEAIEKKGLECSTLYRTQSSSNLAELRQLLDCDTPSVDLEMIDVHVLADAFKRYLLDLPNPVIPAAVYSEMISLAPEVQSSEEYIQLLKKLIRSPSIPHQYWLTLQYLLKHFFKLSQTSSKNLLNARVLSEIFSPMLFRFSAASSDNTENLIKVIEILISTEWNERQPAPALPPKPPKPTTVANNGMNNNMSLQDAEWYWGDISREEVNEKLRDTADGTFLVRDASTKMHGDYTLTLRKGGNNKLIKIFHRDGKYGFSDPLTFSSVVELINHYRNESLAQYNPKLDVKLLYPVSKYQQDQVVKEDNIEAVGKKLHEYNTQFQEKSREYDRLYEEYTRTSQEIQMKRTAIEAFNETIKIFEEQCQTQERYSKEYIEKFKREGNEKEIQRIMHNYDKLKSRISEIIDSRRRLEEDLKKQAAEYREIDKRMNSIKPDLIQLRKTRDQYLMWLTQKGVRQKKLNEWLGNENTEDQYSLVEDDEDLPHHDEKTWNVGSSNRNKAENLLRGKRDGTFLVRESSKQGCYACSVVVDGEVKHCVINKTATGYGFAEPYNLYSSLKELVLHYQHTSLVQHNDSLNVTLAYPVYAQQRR

## C[C@@H](c1oc(=O)c2ccccc2c1-c1cccc(CN2CCN(C)CC2)c1)n1nc(-c2cncc(O)c2)c2c(N)ncnc21 [CHF6523]
[1]; 28-day treatment period
  Rescue medication use, adjusted mean (95% CI): 1.69 (1.40, 1.99) Puffs/day
  Rescue medication use, adjusted mean difference CHF6523 vs placebo (95% CI): 0.28 (–0.14, 0.70); p=0.190 Puffs/day
  Rescue medication use: days with no use, adjusted mean (95% CI): 49.0 (40.3, 57.7) %
  Rescue medication use: days with no use, adjusted mean difference CHF6523 vs placebo (95% CI): –5.7 (–17.9, 6.6); p=0.354%
[1]; Day 28
  COPD Assessment Test total score, adjusted mean difference CHF6523 vs placebo (95% CI): 0.6 (–0.7, 2.0); p=0.340
Proteins in sputum
  Fold change in the Olink panels: IL-1B: 0.771
  Fold change in the Olink panels: IL-6: 1.516
  Fold change in the Olink panels: IL-8: 1.151
  Fold change in the Olink panels: MCP-1: 0.732
  Fold change in the Olink panels: TNF: 0.821
Proteins in sputum; FDR < 0.05
  Proteins significantly modulated by treatment, of the 74 evaluated: none were significantly modulated by treatment
[2]; blood, RNA-seq, 24 patients
  Differentially expressed genes in blood: No differentially expressed genes
[2]; sputum
  |log2FC| of the six genes with |log2FC| >1: 1.019–1.067
[2]; sputum, FDR = 0.0155
  TLR1 log2FC: 0.71
[2]; sputum, FDR = 0.0418
  TLR10 log2FC: 0.48
[2]; sputum, FDR = 0.0451
  TLR6 log2FC: 0.52
[2]; sputum, RNA-seq, FDR < 0.05, more than 38,000 genes evaluated
  Genes significantly differentially expressed in sputum: 126 genes
[2]; sputum, of 126
  Differentially expressed genes in sputum that were upregulated: 119 genes
[3]; daily diary, 2 mg twice daily inhaled, 95% CI 63.5%, 84.5%
  Days on which patients coughed, adjusted mean: 74.0%
[3]; evening
  Mean cough VAS score (95% CI): 31.3 (22.1, 40.4) mm
[3]; in vivo
  Cough events not resolving within 1 h after inhalation: 3.2%
[3]; morning
  Mean cough VAS score (95% CI): 30.3 (95% CI 21.3, 39.3) mm
[4]
  Impact on ion channels implicated in the cough reflex: no discernible impact
in-vivo guinea pig model; formulation changed to use alternative salts
  Coughing in guinea pig, formulation with alternative salts: ineffective in influencing cough
in-vivo guinea pig model; in-vivo guinea pig model, salt form used in the study
  Coughing in guinea pig: trigger coughing
PI3Kδ; Day 20
  Sputum PIP3 adjusted geometric mean fold change from baseline [95% CI]: 0.703 [95% CI 0.606, 0.814]
PI3Kδ; Day 20, 2 mg twice daily inhaled
  Decrease from baseline in sputum PIP3 levels: 29.7%
PI3Kδ; Day 20, p = 0.001
  Sputum PIP3 adjusted ratio CHF6523 vs placebo [95% CI]: 0.705 [0.580, 0.856]
  Sputum PIP3 difference between groups (reduction vs. placebo): 29.5%

— article PMC11491004, “CHF6523 data suggest that the phosphoinositide 3-kinase delta isoform is not a suitable target for the management of COPD” (Respiratory Research, 2024)
